We go through six molecules from US20050220836A1, “Drug delivery device” (priority 2004, published 2005).

Data set [1] relates to human smooth muscle cells. The experiment in a line: Cladribine example, PDGF-stimulated cell proliferation, smooth muscle cells. The format is cell-based. Conditions: for % of PDGF-stimulated increase in cell count: SMC, day six, mean of triplicate. The method, then: (§1) To assess the ability of cladribine to prevent cell proliferation, human smooth muscle or endothelial cells (Clonetics, Walkersville, Md.) were seeded at a density of 2000 cells/cm^2 (approximately 3600 cells/well) into each well of 12-well plates and cultured with 1.5 ml of growth medium containing five percent fetal calf serum (FCS). After twenty-four hours, the growth medium was changed and fresh medium containing 10 ng/ml platelet-derived growth factor AB (PDGF AB; LIFE Technologies), as well as various concentrations of cladribine (0.001-10,000 nM) were added with triplicate wells. Medium was replaced with fresh cladribine-containing medium after three days. On day six, cells were detached by trypsinization to yield a cell suspension, lightly centrifuged to pellet and then counted manually using a Neubauer hemocytometer system. Cell viability was assessed by trypan blue exclusion.

Data set [2] relates to human coronary artery smooth muscle cells. The experiment in a line: anti-proliferative activity in non-synchronized cultured cells stimulated with two percent fetal bovine serum. The format is cell-based. The text has this: The multiple curves represent various concentrations of mycophenolic acid ranging from zero to one thousand nanomolar concentrations.
FIG. 58 illustrates, in graphical format, the anti-proliferative activity of cladribine in non-synchronized cultured human coronary artery smooth muscle cells stimulated with two percent fetal bovine serum.
The multiple curves represent various concentrations of cladribine ranging from zero to nine hundred nanomolar concentrations.

A short description of data set [3]: in vivo release kinetics of cladribine from polymeric stent coatings. Set-up: species or system Yorkshire pig. Conditions: Bx Velocity stents.
Description: FIG. 61 is a graphical representation of the in vivo release kinetics of cladribine from a polymeric coating on BxVelocity® stents, available from Cordis Corporation, implanted in a Yorkshire pig. The basecoat comprises an 85/15 ratio of PVDF and HFP and cladribine for a total combined weight of one thousand eight hundred micrograms (cladribine comprising thirty percent of the total weight). […]
(§2) The basecoat is applied to Bx Velocity® stents and implanted into Yorkshire pigs.
as §2

The next data set concerns human endothelial cells. The experiment in a line: Cladribine example, PDGF-stimulated cell proliferation, endothelial cells. In kind it is cell-based. Conditions: for % of PDGF-stimulated increase in cell count: EC, day six, mean of triplicate. How it is done: as §1
In data set [4] the test system is human coronary artery smooth muscle cells. The experiment in a line: anti-proliferative activity in synchronized cultured cells stimulated with two percent fetal bovine serum. The format is cell-based. The text has this:
(§3) The multiple curves represent various concentrations of topotecan ranging from zero to three hundred nanomolar concentrations.
(§4) The multiple curves represent various concentrations of etoposide ranging from zero to eight hundred nanomolar concentrations.
The multiple curves represent various concentrations of Panzem® ranging from zero to 100 micromolar concentrations.

Another data set deals with cell viability. The experiment in a line: cell viability assay. In kind it is cell-based.
Description: as §3, §4

Data set [5] in a line: in vivo release kinetics from rapamycin, mycophenolic acid and polymer coating, porcine pharmacokinetics studies. Conditions: 180 micrograms each drug, with or without BMA topcoat.
For data set [6], the system named is human coronary artery smooth muscle cell proliferation. The experiment in a line: in vitro cell culture study, coronary artery smooth muscle cell proliferation. The format is cell-based. The text has this:
FIG. 51 is a graph of the inhibition of coronary artery smooth muscle cells by trichostatin A in a cell culture study.

The test system of another data set is tumor cell lines. Conditions: tumor cell lines (Woo et al., 2002); cited from earlier work.

For the molecule `Nc1nc(Cl)nc2c1ncn2[C@H]1C[C@H](O)[C@@H](CO)O1` [Cladribine, 2-chlorodeoxyadenosine], the IC50 in [1] (Homo sapiens, PDGF AB stimulated, reduction to 50 percent of vehicle-treated cell count, read-out: IC50 for inhibition of smooth muscle cell growth) is 23 nM; in [2] (non-synchronized human coronary artery smooth muscle cells, two percent fetal bovine serum) it was approximately 241 nM; in the data set on human endothelial cells (Homo sapiens, Endothelial cell, PDGF AB stimulated, reduction to 50 percent of vehicle-treated cell count, read-out: IC50 for inhibition of endothelial cell growth), 40 nM. For the same molecule, the “% of PDGF-stimulated increase in cell count” value (shortened to “% of PDGF-stimulated increase”) in data set [1] (cladribine 0.01 nM) turned out to be 104%; in data set [1] (cladribine 0.1 nM), 86%; in data set [1] (cladribine 1 nM), 85%; in data set [1] (cladribine 10 nM), 54%; in data set [1] (cladribine 100 nM), 58%; in data set [1] (cladribine 1000 nM) it was 12%. Besides, the “% of PDGF-stimulated increase” value was −4% in data set [1] (cladribine 10,000 nM); 100% in the data set with human endothelial cells (cladribine 0.001 nM); 90% in the data set on human endothelial cells (cladribine 0.01 nM); 79% in the data set on human endothelial cells (cladribine 0.1 nM); 75% with human endothelial cells (cladribine 1 nM); 59% in the data set with human endothelial cells (cladribine 10 nM). For the same molecule, the “% of PDGF-stimulated increase” value with human endothelial cells (cladribine 100 nM) amounted to 57%; in the data set on human endothelial cells (cladribine 1000 nM), 35%; with human endothelial cells (cladribine 10,000 nM), 10%. The “potency on smooth muscle cells relative to endothelial cells” value in [1] (from the IC50 values) is reported as “approximately twice as potent”. In addition, in data set [2] (cladribine zero to nine hundred nanomolar added to rapamycin, non-synchronized cells), the “effect of addition on anti-proliferative activity of rapamycin” value (shortened to “effect of addition”) is reported as “increases the percent inhibition of rapamycin alone”. For the same molecule, the “inhibition of human coronary artery smooth muscle cell proliferation” value in data set [2] (non-synchronized cells, two percent fetal bovine serum) is on record as “completely inhibits”. Also, in data set [3] (Yorkshire pig, 1800 microgram basecoat with thirty percent cladribine, 300 microgram topcoat), the “elution from PVDF/HFP (85/15) coating” value is “levels off significantly”. Also, in data set [3] (Yorkshire pigs, 200 microgram BMA topcoat), the “elution from EVA/BMA basecoat compared with rapamycin” value is “elutes more rapidly than rapamycin”.
As for `COc1cc([C@@H]2c3cc4c(cc3[C@@H](O[C@@H]3O[C@@H]5CO[C@@H](C)O[C@H]5[C@H](O)[C@H]3O)[C@H]3COC(=O)[C@H]23)OCO4)cc(OC)c1O` [Etoposide, etoposide], the “effect of addition” value in data set [4] (etoposide zero to eight hundred nanomolar added to rapamycin) is reported as “increases the percent inhibition of rapamycin alone”. Moreover, in the data set with cell viability (at concentrations up to ten micromolar), the cytotoxicity entry is recorded as “non-cytotoxic”.
Consider `COc1cc2c(cc1O)CC[C@@H]1[C@@H]2CC[C@]2(C)[C@@H](O)CC[C@@H]12` [Panzem®, 2-methoxyestradiol], for which the “effect of addition” value in data set [4] (Panzem zero to 100 micromolar added to rapamycin) is given as “increases the percent of inhibition of rapamycin alone”. The anti-proliferative activity alone result in [4] (two percent fetal bovine serum) is listed as “extremely effective inhibitor”.
Regarding `CC[C@@]1(O)C(=O)OCc2c1cc1n(c2=O)Cc2cc3c(CN(C)C)c(O)ccc3nc2-1` [Topotecan, topotecan], in data set [4] (topotecan zero to three hundred nanomolar added to rapamycin), the “effect of addition” value is given as “increases the percent inhibition of rapamycin alone”. Moreover, the cytotoxicity entry in the data set on cell viability (at concentrations up to one micromolar) is reported as “non-cytotoxic”.
Regarding `COc1c(C)c2c(c(O)c1C/C=C(\C)CCC(=O)O)C(=O)OC2` [mycophenolic acid], the “release from EVA/BMA basecoat compared with rapamycin” value in data set [5] is listed as “elutes more completely over a shorter duration than the rapamycin”. Besides, the “effect of addition” value in [2] (mycophenolic acid zero to one thousand nanomolar added to rapamycin, non-synchronized cells) is on record as “potentiates the anti-proliferative activity of rapamycin”.
With `CC(/C=C/C(=O)NO)=C\[C@@H](C)C(=O)c1ccc(N(C)C)cc1` [trichostatin A], in data set [6] (human coronary artery smooth muscle cells, cell culture, read-out: anti-proliferative IC50), the IC50 was approximately 6 nM. Besides, the “inhibition of human coronary artery smooth muscle cell proliferation” value in data set [6] (in vitro cell culture) is listed as “completely inhibit”. Also, the “anti-proliferative IC50” value with tumor cell lines is reported as “low nM range”.
